How the values were obtained:
[1] = test system: Echinochloa crus-galli; assay: Inhibition of shoot elongation in Echinochloa crus-galli (barnyard grass); format: functional, organism-based
[2] = Inhibition of Very long-chain fatty acid elongase in Echinochloa crus-galli (barnyard grass); settings: read-out: I50
[3] = test system: Echinochloa crus-galli; assay: Ratio of I50 for very long-chain fatty acid elongase in Echinochloa crus-galli (barnyard grass) to EC50 for shoot elongation inhibition in Echinochloa crus-galli (barnyard grass)

SMILES | EC50 [1] [nM] | IC50 [2] [nM] | Ratio [3]
CCOc1cc(Cl)c(CS(=O)(=O)C2=NOC(C)(C)C2)cc1Cl [FENOXASULFONE] | 30 | 300 | 10
Cn1nc(C(F)(F)F)c(CS(=O)(=O)C2=NOC(C)(C)C2)c1OC(F)F [PYROXASULFONE] | 30 | 300 | 10

Reference: ChEMBL document CHEMBL3045099, “Action mechanism of isoxazoline-type herbicides” (J Pestic Sci, 2012)
